According to ChEMBL document CHEMBL4043168, “The design and SAR of a novel series of 2-aminopyridine based LRRK2 inhibitors” (Bioorg Med Chem Lett, 2017):

Legend:
[1] = molecular target: Mitogen-activated protein kinase kinase kinase kinase 2 (Homo sapiens) (UniProt Q12851); test: Inhibition of GCK conserved Lys2 (DIKGANLLLTLQGDVK) in human PBMC at 0.1 uM
[2] = molecular target: Glycogen synthase kinase-3 beta (Homo sapiens) (UniProt P49841); test: Inhibition of GSK3B conserved Lys2 (DIKPQNLLLDPDTAVLK) in human PBMC at 0.1 uM
Chain of Glycogen synthase kinase-3 beta (Homo sapiens) (P49841 whole entry, looked up): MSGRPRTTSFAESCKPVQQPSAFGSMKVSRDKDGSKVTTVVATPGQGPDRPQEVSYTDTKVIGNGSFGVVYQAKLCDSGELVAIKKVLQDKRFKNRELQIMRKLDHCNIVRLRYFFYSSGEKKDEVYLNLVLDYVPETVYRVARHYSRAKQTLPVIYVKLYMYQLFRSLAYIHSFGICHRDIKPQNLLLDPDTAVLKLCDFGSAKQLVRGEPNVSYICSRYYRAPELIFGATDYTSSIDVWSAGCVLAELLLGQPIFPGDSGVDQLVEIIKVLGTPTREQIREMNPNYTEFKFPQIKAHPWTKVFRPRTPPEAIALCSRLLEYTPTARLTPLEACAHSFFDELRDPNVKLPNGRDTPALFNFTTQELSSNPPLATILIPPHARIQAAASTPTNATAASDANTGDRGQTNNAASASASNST

[3] = molecular target: Tyrosine-protein kinase Yes (Homo sapiens) (UniProt P07947); test: Inhibition of YES activation Loop (QGAKFPIKWTAPEAALYGR) in human PBMC at 1 uM
[4] = molecular target: Serine/threonine-protein kinase B-raf (Homo sapiens) (UniProt P15056); test: Inhibition of BRAF labeling at conserved Lys2 (DLKSNNIFLHEDLTVK) in human PBMC at 1 uM
Chain of Serine/threonine-protein kinase B-raf (Homo sapiens) (P15056 whole entry): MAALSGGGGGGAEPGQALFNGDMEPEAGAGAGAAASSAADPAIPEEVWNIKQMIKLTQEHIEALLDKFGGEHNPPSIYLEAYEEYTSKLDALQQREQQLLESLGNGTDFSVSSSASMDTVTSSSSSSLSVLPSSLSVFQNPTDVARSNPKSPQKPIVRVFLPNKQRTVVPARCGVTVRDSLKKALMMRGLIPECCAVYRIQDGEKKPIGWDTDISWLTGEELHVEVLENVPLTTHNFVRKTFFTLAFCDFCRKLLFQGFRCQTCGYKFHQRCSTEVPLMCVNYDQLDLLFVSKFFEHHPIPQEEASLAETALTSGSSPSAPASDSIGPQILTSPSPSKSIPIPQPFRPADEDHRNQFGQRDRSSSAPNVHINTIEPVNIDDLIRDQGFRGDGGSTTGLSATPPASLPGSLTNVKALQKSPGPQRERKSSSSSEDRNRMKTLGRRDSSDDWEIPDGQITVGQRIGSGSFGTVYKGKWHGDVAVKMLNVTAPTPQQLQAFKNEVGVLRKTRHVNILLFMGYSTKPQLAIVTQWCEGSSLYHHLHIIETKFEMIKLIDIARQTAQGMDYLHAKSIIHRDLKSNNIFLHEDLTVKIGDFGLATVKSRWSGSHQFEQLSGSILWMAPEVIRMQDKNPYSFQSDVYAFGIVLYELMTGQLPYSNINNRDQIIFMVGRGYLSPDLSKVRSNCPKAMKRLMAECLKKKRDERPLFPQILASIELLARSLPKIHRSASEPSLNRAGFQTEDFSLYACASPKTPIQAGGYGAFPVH

[5] = molecular target: Mitogen-activated protein kinase 9 (Homo sapiens) (UniProt P45984); test: Inhibition of JNK2 conserved Lys2 (DLKPSNIVVK) in human PBMC at 0.1 uM
[6] = molecular target: Tyrosine-protein kinase Fyn (Homo sapiens) (UniProt P06241); test: Inhibition of FYN activation Loop (QGAKFPIKWTAPEAALYGR) in human PBMC at 0.1 uM
Chain of Tyrosine-protein kinase Fyn (Homo sapiens) (P06241 2-537 limits assumed): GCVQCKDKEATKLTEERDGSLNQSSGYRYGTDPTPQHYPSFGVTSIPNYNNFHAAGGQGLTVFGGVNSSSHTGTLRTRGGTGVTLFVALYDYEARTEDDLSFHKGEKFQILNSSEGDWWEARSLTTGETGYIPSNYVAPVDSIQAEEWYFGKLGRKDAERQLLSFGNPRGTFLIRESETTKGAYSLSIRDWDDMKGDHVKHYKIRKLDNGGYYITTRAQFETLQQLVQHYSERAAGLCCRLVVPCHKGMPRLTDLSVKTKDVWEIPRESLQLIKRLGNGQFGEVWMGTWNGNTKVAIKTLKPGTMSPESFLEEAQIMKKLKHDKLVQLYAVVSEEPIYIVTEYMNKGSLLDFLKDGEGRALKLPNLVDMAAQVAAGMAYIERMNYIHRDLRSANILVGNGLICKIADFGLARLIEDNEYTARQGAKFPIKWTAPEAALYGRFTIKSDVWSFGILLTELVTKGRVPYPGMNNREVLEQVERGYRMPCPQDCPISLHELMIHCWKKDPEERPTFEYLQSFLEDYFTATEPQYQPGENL

[7] = molecular target: T1, Inhibitor of nuclear factor kappa-B kinase subunit epsilon (Homo sapiens) (UniProt Q14164); test: Inhibition of IKKe conserved Lys2 (DIKPGNIMR) in human PBMC at 0.1 uM
T1 sequence (whole entry): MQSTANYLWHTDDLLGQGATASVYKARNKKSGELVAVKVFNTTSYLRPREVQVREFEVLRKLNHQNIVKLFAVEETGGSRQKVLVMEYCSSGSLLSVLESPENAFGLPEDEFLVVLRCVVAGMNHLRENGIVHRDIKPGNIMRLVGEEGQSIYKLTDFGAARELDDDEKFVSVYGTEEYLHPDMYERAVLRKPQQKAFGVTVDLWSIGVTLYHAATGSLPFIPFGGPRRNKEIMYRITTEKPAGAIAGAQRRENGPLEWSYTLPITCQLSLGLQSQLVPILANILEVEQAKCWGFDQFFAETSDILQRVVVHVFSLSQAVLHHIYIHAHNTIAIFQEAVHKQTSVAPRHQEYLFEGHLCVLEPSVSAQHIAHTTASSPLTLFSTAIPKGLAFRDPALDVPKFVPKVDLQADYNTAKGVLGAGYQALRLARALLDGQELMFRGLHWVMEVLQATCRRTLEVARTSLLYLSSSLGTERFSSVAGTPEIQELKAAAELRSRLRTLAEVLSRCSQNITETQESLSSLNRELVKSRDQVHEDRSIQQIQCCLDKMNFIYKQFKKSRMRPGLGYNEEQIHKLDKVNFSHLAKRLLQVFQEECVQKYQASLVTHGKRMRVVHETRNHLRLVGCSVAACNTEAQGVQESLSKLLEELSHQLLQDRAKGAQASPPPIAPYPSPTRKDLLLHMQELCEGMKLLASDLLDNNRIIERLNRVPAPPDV

[8] = molecular target: Dual specificity mitogen-activated protein kinase kinase 3 (Homo sapiens) (UniProt P46734); test: Inhibition of MAP2K3 conserved Lys2 (DVKPSNVLINK) in human PBMC at 1 uM
Chain of Dual specificity mitogen-activated protein kinase kinase 3 (Homo sapiens) (P46734 whole entry): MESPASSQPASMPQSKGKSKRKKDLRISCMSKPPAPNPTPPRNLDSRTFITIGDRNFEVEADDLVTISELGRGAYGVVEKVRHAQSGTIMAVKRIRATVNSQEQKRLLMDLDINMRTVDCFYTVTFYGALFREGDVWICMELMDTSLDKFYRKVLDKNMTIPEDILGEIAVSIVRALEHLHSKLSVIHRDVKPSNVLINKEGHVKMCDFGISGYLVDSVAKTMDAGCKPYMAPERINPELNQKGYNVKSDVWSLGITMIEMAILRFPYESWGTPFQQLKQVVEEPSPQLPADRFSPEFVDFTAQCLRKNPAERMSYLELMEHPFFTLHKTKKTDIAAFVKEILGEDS

[9] = molecular target: Leucine-rich repeat serine/threonine-protein kinase 2 (Homo sapiens, UniProt Q5S007); test: Inhibition of LRRK2 conserved Lys2 (DLKPHNVLLFTLYPNAAIIAK) in human PBMC at 1 uM
[10] = molecular target: Serine/threonine-protein kinase Nek9 (Homo sapiens) (UniProt Q8TD19); test: Inhibition of NEK9 conserved Lys2 (DIKTLNIFLTK) in human PBMC at 1 uM
[11] = molecular target: Serine/threonine-protein kinase WNK2 (Homo sapiens) (UniProt Q9Y3S1); test: Inhibition of Wnk2 ATP binding site (GSFKTVYK) in human PBMC at 1 uM
Chain of Serine/threonine-protein kinase WNK2 (Homo sapiens) (Q9Y3S1 whole entry): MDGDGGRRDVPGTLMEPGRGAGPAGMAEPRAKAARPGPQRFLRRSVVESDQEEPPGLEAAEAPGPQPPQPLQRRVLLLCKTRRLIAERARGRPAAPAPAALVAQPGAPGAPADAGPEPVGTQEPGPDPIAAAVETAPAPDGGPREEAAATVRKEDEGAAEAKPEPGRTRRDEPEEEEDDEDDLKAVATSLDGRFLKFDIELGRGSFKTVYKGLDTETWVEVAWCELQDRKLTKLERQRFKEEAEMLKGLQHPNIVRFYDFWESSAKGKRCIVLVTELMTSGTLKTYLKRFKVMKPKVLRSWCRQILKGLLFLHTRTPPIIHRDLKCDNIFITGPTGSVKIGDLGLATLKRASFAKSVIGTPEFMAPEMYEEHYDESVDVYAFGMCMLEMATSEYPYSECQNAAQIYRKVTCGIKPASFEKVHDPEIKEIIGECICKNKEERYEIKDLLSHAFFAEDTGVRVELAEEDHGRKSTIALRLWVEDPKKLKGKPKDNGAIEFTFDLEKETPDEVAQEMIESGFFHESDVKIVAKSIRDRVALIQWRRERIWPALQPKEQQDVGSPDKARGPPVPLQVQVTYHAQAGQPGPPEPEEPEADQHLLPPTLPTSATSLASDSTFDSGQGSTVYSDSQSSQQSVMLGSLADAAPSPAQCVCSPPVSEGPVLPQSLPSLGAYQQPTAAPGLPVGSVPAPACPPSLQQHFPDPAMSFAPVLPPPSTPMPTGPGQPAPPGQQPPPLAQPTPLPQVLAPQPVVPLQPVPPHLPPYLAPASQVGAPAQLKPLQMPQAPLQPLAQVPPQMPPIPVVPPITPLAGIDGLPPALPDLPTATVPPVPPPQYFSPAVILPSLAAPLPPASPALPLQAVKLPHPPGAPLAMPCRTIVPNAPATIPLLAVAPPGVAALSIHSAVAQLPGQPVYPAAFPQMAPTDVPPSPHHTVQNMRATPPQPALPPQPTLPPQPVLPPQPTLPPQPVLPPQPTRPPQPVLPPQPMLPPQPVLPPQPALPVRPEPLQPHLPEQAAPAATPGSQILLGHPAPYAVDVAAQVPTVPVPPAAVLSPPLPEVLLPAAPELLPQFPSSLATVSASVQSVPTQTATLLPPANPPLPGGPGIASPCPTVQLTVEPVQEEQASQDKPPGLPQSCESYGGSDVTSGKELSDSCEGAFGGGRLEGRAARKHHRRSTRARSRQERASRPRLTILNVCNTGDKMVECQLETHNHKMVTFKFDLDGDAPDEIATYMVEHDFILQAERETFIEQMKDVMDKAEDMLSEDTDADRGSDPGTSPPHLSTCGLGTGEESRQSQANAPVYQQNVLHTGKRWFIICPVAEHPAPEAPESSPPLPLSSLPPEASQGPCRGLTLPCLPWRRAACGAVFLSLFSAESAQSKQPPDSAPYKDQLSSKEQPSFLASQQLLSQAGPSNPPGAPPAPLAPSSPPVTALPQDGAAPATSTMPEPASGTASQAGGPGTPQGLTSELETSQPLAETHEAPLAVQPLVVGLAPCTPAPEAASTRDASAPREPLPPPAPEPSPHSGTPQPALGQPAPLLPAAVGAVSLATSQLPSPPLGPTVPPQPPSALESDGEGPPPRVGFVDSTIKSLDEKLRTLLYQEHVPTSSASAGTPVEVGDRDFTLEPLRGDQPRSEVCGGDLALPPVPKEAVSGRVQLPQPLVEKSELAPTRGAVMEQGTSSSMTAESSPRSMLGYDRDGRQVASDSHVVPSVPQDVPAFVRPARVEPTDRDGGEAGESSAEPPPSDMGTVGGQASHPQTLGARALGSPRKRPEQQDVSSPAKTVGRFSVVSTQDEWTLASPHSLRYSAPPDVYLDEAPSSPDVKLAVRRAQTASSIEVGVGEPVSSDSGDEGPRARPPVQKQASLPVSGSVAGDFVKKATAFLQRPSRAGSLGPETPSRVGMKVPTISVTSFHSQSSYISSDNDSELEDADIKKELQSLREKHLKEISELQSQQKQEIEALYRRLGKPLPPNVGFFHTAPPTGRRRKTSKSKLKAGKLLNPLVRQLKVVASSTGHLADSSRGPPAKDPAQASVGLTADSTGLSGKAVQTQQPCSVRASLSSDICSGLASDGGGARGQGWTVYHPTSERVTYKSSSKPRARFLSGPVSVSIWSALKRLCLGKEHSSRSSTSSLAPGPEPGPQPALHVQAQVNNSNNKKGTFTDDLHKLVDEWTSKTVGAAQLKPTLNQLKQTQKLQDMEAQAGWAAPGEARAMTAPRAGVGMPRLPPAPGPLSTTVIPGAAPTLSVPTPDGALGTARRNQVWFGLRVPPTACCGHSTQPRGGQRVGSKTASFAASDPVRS

[12] = molecular target: Diacylglycerol kinase alpha (Homo sapiens) (UniProt P23743); test: Inhibition of DGKA labeling at activation Loop (IDPVPNTHPLLVFVNPKSGGK) in human PBMC at 1 uM
Chain of Diacylglycerol kinase alpha (Homo sapiens) (P23743 whole entry): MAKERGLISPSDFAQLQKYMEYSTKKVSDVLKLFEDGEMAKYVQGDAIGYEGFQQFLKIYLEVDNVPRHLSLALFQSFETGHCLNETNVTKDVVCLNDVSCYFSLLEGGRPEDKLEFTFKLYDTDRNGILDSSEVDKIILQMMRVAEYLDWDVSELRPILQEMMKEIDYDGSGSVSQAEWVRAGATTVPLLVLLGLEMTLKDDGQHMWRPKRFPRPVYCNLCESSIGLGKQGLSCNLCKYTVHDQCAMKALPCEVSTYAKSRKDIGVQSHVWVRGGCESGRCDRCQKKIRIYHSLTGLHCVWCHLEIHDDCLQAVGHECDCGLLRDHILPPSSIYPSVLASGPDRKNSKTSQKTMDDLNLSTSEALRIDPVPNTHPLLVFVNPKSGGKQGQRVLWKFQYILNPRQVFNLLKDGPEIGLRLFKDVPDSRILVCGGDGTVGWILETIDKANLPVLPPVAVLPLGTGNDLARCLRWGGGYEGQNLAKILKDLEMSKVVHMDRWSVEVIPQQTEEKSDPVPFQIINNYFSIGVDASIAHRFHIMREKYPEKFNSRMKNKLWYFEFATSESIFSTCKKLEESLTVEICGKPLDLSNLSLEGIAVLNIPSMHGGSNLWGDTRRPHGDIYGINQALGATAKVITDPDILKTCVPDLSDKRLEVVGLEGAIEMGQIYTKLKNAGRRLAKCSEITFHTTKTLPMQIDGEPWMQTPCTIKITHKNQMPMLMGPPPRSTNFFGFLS

[13] = molecular target: STE20-like serine/threonine-protein kinase (Homo sapiens) (UniProt Q9H2G2); test: Inhibition of SLK conserved Lys2 (DLKAGNILFTLDGDIK) in human PBMC at 1 uM
[14] = molecular target: Mitogen-activated protein kinase kinase kinase 7 (Homo sapiens) (UniProt O43318); test: Inhibition of TAK1 conserved Lys2 (DLKPPNLLLVAGGTVLK) in human PBMC at 0.1 uM
[15] = molecular target: Serine/threonine-protein kinase WNK2 (Homo sapiens) (UniProt Q9Y3S1); test: Inhibition of Wnk2 ATP binding site (GSFKTVYK) in human PBMC at 0.1 uM
[16] = molecular target: T2, Serine/threonine-protein kinase 4 (Homo sapiens) (UniProt Q13043); test: Inhibition of MST1 conserved Lys1 ETGQIVAIKQVPVESDLQEIIK in human PBMC at 0.1 uM
T2 sequence (whole entry): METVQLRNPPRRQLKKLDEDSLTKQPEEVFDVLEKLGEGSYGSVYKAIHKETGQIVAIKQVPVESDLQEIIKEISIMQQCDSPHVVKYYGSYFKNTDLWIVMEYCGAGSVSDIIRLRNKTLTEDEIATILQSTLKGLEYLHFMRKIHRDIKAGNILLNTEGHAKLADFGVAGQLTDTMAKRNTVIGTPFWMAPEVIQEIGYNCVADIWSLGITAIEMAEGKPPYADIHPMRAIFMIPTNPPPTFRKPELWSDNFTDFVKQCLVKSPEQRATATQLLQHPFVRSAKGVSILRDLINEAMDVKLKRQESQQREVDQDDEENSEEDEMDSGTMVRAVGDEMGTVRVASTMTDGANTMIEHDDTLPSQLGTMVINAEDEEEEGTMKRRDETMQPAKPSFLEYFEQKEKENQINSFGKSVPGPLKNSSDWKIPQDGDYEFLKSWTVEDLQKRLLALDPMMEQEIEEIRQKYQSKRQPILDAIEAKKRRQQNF

[17] = molecular target: Serine/threonine-protein kinase WNK1 (Homo sapiens) (UniProt Q9H4A3); test: Inhibition of Wnk1 conserved Lys2 (DLKCDNIFITGPTGSVK) in human PBMC at 1 uM

## CC(C)n1cc(-c2cc(-c3ccc(CN4CCOCC4)cc3)cnc2N)nn1
[1]
  inhibition: 10.9%
[2]
  inhibition: -10%
[3]
  inhibition: -2.3%
[4]
  inhibition: 11.4%
[5]
  inhibition: 25.1%
[6]
  inhibition: -4.4%
[7]
  inhibition: 21.7%
[8]
  inhibition: -9.2%
[9]
  inhibition: 48.5%
[10]
  inhibition: 25.5%
[11]
  inhibition: 14.2%
[12]
  inhibition: -9.6%
[13]
  inhibition: 30.5%
[14]
  inhibition: -0.4%
[15]
  inhibition: 18.3%
[16]
  inhibition: -6.6%
[17]
  inhibition: 2.2%
